Data on three compounds can be found in patent US12678438B2, “Treatment of cancer with CDK inhibitors” (THE TRUSTEES OF THE UNIVERSITY OF PENNSYLVANIA, priority 2019, dated 2026).

Holding throughout (format): cell-based, human
For assay [1], the system named is chromatin-bound p-MED1/MED1. The assay can be described thus: Chromatin-bound protein extraction and immunoblot. The note with it: DHT-stimulated LNCaP, 6 h; THZ1 100 nM, enzalutamide 5 μM. As for the experimental part: Chromatin bound protein extraction was performed following the protocol described in Pawar et al. Briefly, 10 million cells were collected and washed with DPBS, and were resuspended in 250 μl Buffer A (10 mM HEPES pH 7.9, 10 mM KCl, 1.5 mM MgCl2, 0.34 M sucrose, 10% glycerol, 1 mM DTT) supplemented with 0.1% TritonX-100 and incubated on ice for 10 min. The nuclei pellet was collected by centrifugation at 1300×g for 5 min at 4° C., washed in Buffer A and centrifuged again with the same settings. The nuclear pellet was then resuspended in Buffer B (3 mM EDTA, 0.2 mM EGTA, 1 mM DTT) and incubated on ice for 30 min. The chromatin pellet was collected by centrifugation at 1700×g for 5 min at 4° C., washed in Buffer B and centrifuged again with the same settings. The proteins were incubated on ice in Buffer B with 150 mM NaCl for 20 min and centrifuged at 1700×g for 5 min to remove proteins soluble in 150 mM salt concentrations. The pellet was then incubated in Buffer B with 300 mM NaCl on ice for 20 min and centrifuged again at 1700×g to obtain the final chromatin pellet. The chromatin pellet was dissolved in sample buffer, sonicated for 15 seconds, and boiled at 95° C. for 10 min. Samples were analyzed using Immunoblot analysis as described previously. All buffers were supplemented with Pierce protease inhibitor and Halt protease & phosphatase inhibitors.

The subject of assay [2] is MED1 and AR recruitment to the chromatin. The assay can be described thus: ChIP-seq of genome-wide MED1 and AR binding. The note with it: VCaP, 10 nM DHT plus 5 μM enzalutamide, 12 h. As for the experimental part:
ChIP was performed using iDeal ChIP-seq Kit for Transcription Factors (Diagenode, C01010170) according to manufacturer's protocol. In brief, the cells were crosslinked with 1% formaldehyde in culture medium for 10 min at room temperature. Cross-linking was terminated by the addition of 1/10 volume 1.25 M glycine for 5 min at room temperature followed by cell lysis and sonication (Bioruptor, Diagenode), resulting in an average chromatin fragment size of 200 bp. Chromatin equivalent to 5×10^6 cells was isolated and incubated with 10 μg antibody overnight at 4° C. (MED1, H3-acetyl K27, AR, and IgG (Diagenode). ChIP-seq libraries were prepared from the ChIP-enriched DNA samples using the TruSeq ChIP Library Preparation Kit (Illumina, IP-202-1012, IP-202-1024) and protocol. In brief, ChIP-enriched DNA (1-10 ng) was converted to blunt-ended fragments. A single A-base was added to fragment ends followed by ligation of Illumina adaptors. The adaptor-modified DNA fragments were enriched by PCR using the Illumina Barcode primers and Phusion DNA polymerase. PCR products were size selected using 3% NuSieve agarose gels (Lonza) followed by gel extraction using QIAEX II reagents (QIAGEN). Libraries were quantified with the Bioanalyzer 2100 (Agilent) and sequenced on the Illumina NextSeq 500 Sequencer (75 nucleotide read length).
Sequencing reads were quality checked with FASTQC (www.bioinformatics.babraham.ac.uk/projects/fastqc) and aligned to the GRCh37 (release 27) genome using the STAR v2.5.1 aligner with default settings. PCR duplicate reads in the aligned bam files were removed using samtools, bam files were converted to CPM normalized bigwig tracks using deeptools, and viewed using the Integrated Genomics Viewer or the UCSC genome browser. Single end reads were extended up to the fragment length (200 bp) along the read direction.
The enrichment peaks for the various transcription factors and histone marks were computed using MACS2, with default settings. Regions found to ubiquitously enriched across a number of next-generation sequencing experiments, also known as the blacklisted peaks (sites.google.com/site/anshulkundaje/projects/blacklists), were excluded in all subsequent analysis.

For assay [3], the system named is AR target genes. The assay can be described thus: qRT-PCR of DHT-induced AR target gene expression. The note with it: LNCaP and VCaP, 10 μM enzalutamide. As for the experimental part: For AR signaling stimulation experiments, cells were plated in complete media at required confluency. After 24 h cells were washed with DPBS and cultured in RPMI/DMEM without Phenol Red (Invitrogen, 11835030) and 10% charcoal-dextran stripped FBS (Gemini BioProducts, 100-119) for 72 h. Cells were then stimulated with 10 nM DHT for the specific time points.
Total RNA was isolated from cells using miRNeasy Mini Kit (Qiagen, 74106) and cDNA was synthesized from 1 μg total RNA using SuperScriptIV (Life Technologies, 18090200). qRT-PCR was performed using Fast SYBR Master Mix (Life Technologies, 4385617) or Taqman Fast Advance MMIX (Life Technologies, 4444964), and analyzed on QuantStudio3 (Applied Biosystems, USA). The target mRNA expression was quantified using ΔΔCt method, as normalized to GAPDH transcript levels. Primers were designed using Primer3 Input (version 0.4.0) (bioinfo.ut.ee/primer3-0.4.0/primer3) and synthesized by Integrated DNA Technologies.
On the technique in general: Real-time PCR tracks product formation cycle by cycle.

The subject of assay [4] is p-MED1 (p-T1457 MED1). The assay can be described thus: Immunoblot of p-MED1 in AR-positive PCa cell lines (VCaP, LNCaP, 22RV1). The note with it: LNCaP. The protocol: Cell lysates were prepared with RIPA buffer (Boston Bioproducts, BP-115DG)-10 mM Tris-HCl pH 7.5, 1 mM EDTA, 400 mM NaCl, 0.5% NP-40 and 1 mM DTT, supplemented with protease inhibitor cocktail (Pierce, A32965) and phosphatase inhibitor (Thermo, 1861280). For immunoblotting 200 μg total protein extract was boiled in sample buffer and 15-25 μg aliquots were separated by SDS-PAGE and transferred onto Polyvinylidene Difluoride membrane (GE Healthcare, IPVH00010). The membrane was incubated for one hour in blocking buffer [Tris-buffered saline, 0.1% Tween (TBS-T), 5% nonfat dry milk followed by overnight incubation on a rocker at 4° C. with the primary antibody. Following a wash with TBS-T, the blot was incubated with horseradish peroxidase-conjugated secondary antibody for 2 hrs on a rocker at room temperature. The blots were washed again and signals were visualized using enhanced chemiluminescence system as per manufacturer's protocol (GE Healthcare) or Kwik Quant Imager (Kindle Biosciences). Primary antibodies used in the immunoblotting (IB), immunoprecipitation (IP), and Chromatin Immunoprecipitation sequencing (ChIP-seq) assays are as follows: AR_IP, IB, ChIP-Seq (Millipore, 06-680); pS81-AR_IB (Millipore, 07-1375-EMD); RNA Pol II_IP, IB (Abcam, ab5408); ERG_IB (Abcam, a92513); PSA_IB (Dako, A0562); H3-acetyl K27_IP, IB, ChIP Seq (Abcam, ab32104) cPARP_IB (Cell Signaling Technology, 9541s); Cleaved caspase-3_IB (Cell Signaling Technology, 9664t); CDK7_IP, IB (Cell Signaling Technology, 2916s); CDK9_IP, IB (Cell Signaling Technology, 2316s); CDK12_IB (Cell Signaling Technology, 11973S); CDK13_IB (Sigma Cat. #ABE1860); Cyclin H_IB (Cell Signaling Technology, 2927T); HA_IP, IB (Cell Signaling Technology, 2367s); ERK1/2_IP, IB (Cell Signaling Technology, 9107s); phospho-ERK1/2_IB (Cell Signaling Technology, 9101s); phospho-Threonine_IB (Cell Signaling Technology, 9381s); PP2A alpha_IB (Abcam, ab32104); phospho-MED1_IB (Abcam, ab60950); Anti-GST_IB (Cell Signaling Technology, 2624); Anti-AKT_IB (Cell Signaling Technology, 9272); Anti-phosphoAKT_IB(Cell Signaling Technology, 4060); Anti-phospho-AR (Ser-515) _IB (Abeam, ab128250); Anti-RNA Pol 'LIB (Abeam, ab5408); Anti-phospho-pol II (Ser-5)_IB (Abeam, ab ab5095); Anti-phospho-CDK7 (Tlu-170) _IB (Millipore, ABS567); MED1_IP, IB, ChIP Seq (Bethyl, abA300-793A), Ki67_IHC (Cell Signaling Technology, 9661), and GAPDH (14C10), IB (Cell Signaling Technology, 3683s) for loading control.

Turning to `CNC(=O)c1ccc(N2C(=S)N(c3ccc(C#N)c(C(F)(F)F)c3)C(=O)C2(C)C)cc1F` [enzalutamide], in assay [1], the “chromatin-bound levels of p-MED1/MED1” value is recorded as “unable to completely dissociate p-MED1 from the chromatin”. In assay [2], the “MED1 chromatin association (ChIP-seq)” value was “completely abolished” and the “average ChIP-seq signal for AR” value is reported as “significantly reversed”. Further, the “DHT-induced AR target gene expression” value in assay [3] was “AR target reversal”.
Turning to `COc1ccccc1-c1cc(Nc2cccc(CS(N)(=O)=O)c2)ncn1` [LDC], in assay [4] (VCaP, 22RV1, standard culture conditions, 24 h (THZ1 and LDC also with DHT stimulation)), the p-MED1 levels result is reported as “no such effect on p-MED1 levels”.
As for `CN(C)CCCC(=O)Nc1ccc(C(=O)Nc2cccc(Nc3ncc(Cl)c(-c4c[nH]c5ccccc45)n3)c2)cc1` [THZ1-R], in assay [4] (100 nM, 12 h), the MED1 phosphorylation entry is listed as “does not affect MEDI phosphorylation”.
